Values after ≈ are worked out from the molar mass of the structure shown. Active and inactive are the calls of the source. No cut-off for these calls is given here. Numbered stars: 1 amine (or outer) side, 2 acyl side, 3 side chain; on linkers, the order of the positions; unused ones are H or OH. Bridge positions count the residues as written; N and C are the ends. Square brackets hold non-standard residues; d marks the D form. Peptide text beside a SMILES is read from it. * marks the point of attachment. hTyr(3S-OH,4S-OH,3'-OSO3H) = N[C@H](C(=O)O)[C@H](O)[C@@H](O)c1ccc(O)c(OS(=O)(=O)O)c1; Orn(4R-OH,5R-OH) = O=C([C@H](C[C@@H](O)[C@@H](O)N[*:3])N[*:1])[*:2]; Pro(3S-OH,4S-Me) = C[C@H]1CN[C@H](C(=O)O)[C@H]1O; X1 = CCCCCOc1ccc(-c2cc(-c3ccc(C(=O)*)cc3)no2)cc1; Gln(3R-OH) = NC(=O)C[C@@H](O)[C@H](N)C(=O)O; Hyp = O=C(O)[C@@H]1C[C@@H](O)CN1
Experiments:
Candida orthopsilosis [1] = assay: Fungicidal activity against Candida orthopsilosis isolate CP-151 bloodstream form by CLSI method; format: functional; details: Lodderomyces orthopsilosis
Candida parapsilosis [2] = assay: Antifungal activity against Candida parapsilosis clinical isolate bloodstream form assessed as time required for 99% reduction in fungal growth at 32 mg/L by time-kill assay; format: functional
Candida orthopsilosis [3] = assay: Antifungal activity against Candida orthopsilosis clinical isolate bloodstream form assessed as time required for 99% reduction in fungal growth at 4 mg/L by time-kill assay; format: functional
Candida orthopsilosis [4] = assay: Antifungal activity against Candida orthopsilosis clinical isolate bloodstream form assessed as time required for 90% reduction in fungal growth at 0.25 mg/L by time-kill assay; format: functional
Candida metapsilosis [5] = assay: Antifungal activity against Candida metapsilosis clinical isolate bloodstream form assessed as time required for 99% reduction in fungal growth at 16 mg/L by time-kill assay; format: functional
Candida orthopsilosis [6] = assay: Antifungal activity against Candida orthopsilosis clinical isolate bloodstream form assessed as time required for 99% reduction in fungal growth at 16 mg/L by time-kill assay; format: functional
Candida metapsilosis [7] = assay: Antifungal activity against Candida metapsilosis clinical isolate bloodstream form assessed as time required for 90% reduction in fungal growth at 16 mg/L by time-kill assay; format: functional
Candida parapsilosis [8] = assay: Fungicidal activity against Candida parapsilosis isolate CP-302 bloodstream form by CLSI method; format: functional; details: Lodderomyces parapsilosis
Candida orthopsilosis [9] = assay: Fungicidal activity against Candida orthopsilosis isolate CP-150 bloodstream form by CLSI method; format: functional; details: Lodderomyces orthopsilosis
Candida parapsilosis [10] = assay: Antifungal activity against Candida parapsilosis clinical isolate bloodstream form assessed as time required for 90% reduction in fungal growth at 4 mg/L by time-kill assay; format: functional
Candida orthopsilosis [11] = assay: Antifungal activity against Candida orthopsilosis clinical isolate bloodstream form assessed as time required for 90% reduction in fungal growth at 32 mg/L by time-kill assay; format: functional
Candida parapsilosis [12] = assay: Antifungal activity against Candida parapsilosis clinical isolate bloodstream form assessed as fungal count at 4 mg/L measured at 6 hrs by time-kill assay; format: functional
Candida orthopsilosis [13] = assay: Fungicidal activity against Candida orthopsilosis isolate ATC194 bloodstream form by CLSI method; format: functional; details: Lodderomyces orthopsilosis, isolate ATC-194
Candida parapsilosis [14] = assay: Antifungal activity against Candida parapsilosis clinical isolate bloodstream form assessed as time required for 99.9% reduction in fungal growth at 16 mg/L by time-kill assay; format: functional
Candida orthopsilosis [15] = assay: Antifungal activity against Candida orthopsilosis clinical isolate bloodstream form assessed as time required for 99% reduction in fungal growth at 0.25 mg/L by time-kill assay; format: functional
Candida metapsilosis [16] = assay: Antifungal activity against Candida metapsilosis clinical isolate bloodstream form assessed as time required for 99% reduction in fungal growth at 0.25 mg/L by time-kill assay; format: functional
Candida parapsilosis [17] = assay: Fungicidal activity against Candida parapsilosis isolate CP-301 bloodstream form by CLSI method; format: functional; details: Lodderomyces parapsilosis
Candida parapsilosis [18] = assay: Antifungal activity against Candida parapsilosis clinical isolate bloodstream form assessed as induction of fungal killing rate at 0.03 to 32 mg/L measured at 6 hrs by time-kill assay; format: functional, organism-based
Candida metapsilosis [19] = assay: Antifungal activity against Candida metapsilosis clinical isolate bloodstream form assessed as time required for 99% reduction in fungal growth at 32 mg/L by time-kill assay; format: functional
Candida parapsilosis [20] = assay: Antifungal activity against Candida parapsilosis clinical isolate bloodstream form assessed as time required for 90% reduction in fungal growth at 0.25 mg/L by time-kill assay; format: functional
Candida parapsilosis [21] = assay: Antifungal activity against Candida parapsilosis clinical isolate bloodstream form assessed as minimum concentration required for => 3-log decrease in fungal growth after 12 to 48 hrs by time-kill assay; format: functional
Candida parapsilosis [22] = assay: Antifungal activity against Candida parapsilosis clinical isolate bloodstream form assessed as time required for 99.9% reduction in fungal growth at 32 mg/L by time-kill assay; format: functional
Candida orthopsilosis [23] = assay: Antifungal activity against Candida orthopsilosis clinical isolate bloodstream form assessed as induction of maximal fungal death at 16 mg/L after 48 hrs by time-kill assay; format: functional, organism-based
Candida metapsilosis [24] = assay: Antifungal activity against Candida metapsilosis clinical isolate bloodstream form assessed as time required for 99.9% reduction in fungal growth at 4 mg/L by time-kill assay; format: functional
Candida orthopsilosis [25] = assay: Antifungal activity against Candida orthopsilosis clinical isolate bloodstream form assessed as time required for 50% reduction in fungal growth at 32 mg/L by time-kill assay; format: functional
Candida orthopsilosis [26] = assay: Antifungal activity against Candida orthopsilosis clinical isolate bloodstream form assessed as time required for 99.9% reduction in fungal growth at 1 mg/L by time-kill assay; format: functional
Candida parapsilosis [27] = assay: Fungicidal activity against Candida parapsilosis isolate CP-300 bloodstream form by CLSI method; format: functional; details: Lodderomyces parapsilosis
Candida orthopsilosis [28] = assay: Antifungal activity against Candida orthopsilosis clinical isolate bloodstream form assessed as time required for 99% reduction in fungal growth at 32 mg/L by time-kill assay; format: functional
Candida parapsilosis [29] = assay: Antifungal activity against Candida parapsilosis clinical isolate bloodstream form assessed as time required for 90% reduction in fungal growth at 32 mg/L by time-kill assay; format: functional
Candida parapsilosis [30] = assay: Antifungal activity against Candida parapsilosis clinical isolate bloodstream form assessed as time required for 50% reduction in fungal growth at 1 mg/L by time-kill assay; format: functional
Candida parapsilosis [31] = assay: Fungicidal activity against Candida parapsilosis ATCC 22019 bloodstream form by CLSI method; format: functional; details: Lodderomyces parapsilosis
Candida orthopsilosis [32] = assay: Antifungal activity against Candida orthopsilosis clinical isolate bloodstream form assessed as time required for 50% reduction in fungal growth at 16 mg/L by time-kill assay; format: functional
Candida parapsilosis [33] = assay: Antifungal activity against Candida parapsilosis clinical isolate bloodstream form assessed as time required for 50% reduction in fungal growth at 4 mg/L by time-kill assay; format: functional
Candida orthopsilosis [34] = assay: Antifungal activity against Candida orthopsilosis clinical isolate bloodstream form assessed as time required for 99.9% reduction in fungal growth at 32 mg/L by time-kill assay; format: functional
Candida metapsilosis [35] = assay: Antifungal activity against Candida metapsilosis clinical isolate bloodstream form assessed as minimum concentration required for => 3-log decrease in fungal growth after 12 to 48 hrs by time-kill assay; format: functional
Candida parapsilosis [36] = assay: Antifungal activity against Candida parapsilosis clinical isolate bloodstream form assessed as time required for 99% reduction in fungal growth at 16 mg/L by time-kill assay; format: functional
Candida metapsilosis [37] = assay: Antifungal activity against Candida metapsilosis clinical isolate bloodstream form assessed as time required for 50% reduction in fungal growth at 32 mg/L by time-kill assay; format: functional
Candida parapsilosis [38] = assay: Antifungal activity against Candida parapsilosis clinical isolate bloodstream form assessed as time required for 99% reduction in fungal growth at 4 mg/L by time-kill assay; format: functional
Candida metapsilosis [39] = assay: Antifungal activity against Candida metapsilosis clinical isolate bloodstream form assessed as time required for 50% reduction in fungal growth at 1 mg/L by time-kill assay; format: functional
Candida metapsilosis [40] = assay: Antifungal activity against Candida metapsilosis clinical isolate bloodstream form assessed as induction of maximal fungal death at 32 mg/L after 48 hrs by time-kill assay; format: functional, organism-based
Candida parapsilosis [41] = assay: Antifungal activity against Candida parapsilosis clinical isolate bloodstream form assessed as fungal count at 1 mg/L measured at 6 hrs by time-kill assay; format: functional

With `CC[C@H](C)C[C@H](C)CCCCCCCCC(=O)N[C@H]1C[C@@H](O)[C@@H](NCCN)NC(=O)[C@@H]2[C@@H](O)CCN2C(=O)[C@H]([C@H](O)CCN)NC(=O)[C@H]([C@H](O)[C@@H](O)c2ccc(O)cc2)NC(=O)[C@@H]2C[C@@H](O)CN2C(=O)[C@H]([C@@H](C)O)NC1=O` [CASPOFUNGIN] the MIC (Candida orthopsilosis [1]) was 0.5 µg/mL (≈ 0.457 µM), the Time (Candida parapsilosis [2]) was >48 h and the Time (Candida orthopsilosis [3]) was 22.7 h. The Time (Candida orthopsilosis [4]) was >48 h, the Time (Candida metapsilosis [5]) was 17.21 h and the Time (Candida orthopsilosis [6]) was 25.64 h. The Time (Candida metapsilosis [7]) was 8.61 h, the MIC (Candida parapsilosis [8]) was 2 µg/mL (≈ 1.83 µM) and the MIC (Candida orthopsilosis [9]) was 0.5 µg/mL (≈ 0.457 µM). The Time (Candida parapsilosis [10]) was 25.58 h, the Time (Candida orthopsilosis [11]) was 34.97 h and the log10cfu (Candida parapsilosis [12]) was 1.43 /ml. For the same molecule, the MIC (Candida orthopsilosis [13]) was 0.5 µg/mL (≈ 0.457 µM), the Time (Candida parapsilosis [14]) was >48 h and the Time (Candida orthopsilosis [15]) was >48 h. For the same molecule, the Time (Candida metapsilosis [16]) was >48 h, the MIC (Candida parapsilosis [17]) was 2 µg/mL (≈ 1.83 µM) and the Activity (Candida parapsilosis [18]) was “inactive”. For the same molecule, the Time (Candida metapsilosis [19]) was 13.2 h, the Time (Candida parapsilosis [20]) was >48 h and the MED (Candida parapsilosis [21]) was 14 mg/L. The Time (Candida parapsilosis [22]) was >48 h, the Activity (Candida orthopsilosis [23]) was “Active” and the Time (Candida metapsilosis [24]) was >48 h. For the same molecule, the Time (Candida orthopsilosis [25]) was 10.53 h, the Time (Candida orthopsilosis [26]) was >48 h and the MIC (Candida parapsilosis [27]) was 2 µg/mL (≈ 1.83 µM). For the same molecule, the Time (Candida orthopsilosis [28]) was >48 h, the Time (Candida parapsilosis [29]) was 6.6 h and the Time (Candida parapsilosis [30]) was 22.3 h. For the same molecule, the MIC (Candida parapsilosis [31]) was 1 µg/mL (≈ 0.915 µM), the Time (Candida orthopsilosis [32]) was 3.86 h and the Time (Candida parapsilosis [33]) was 7.7 h. For the same molecule, the Time (Candida orthopsilosis [34]) was >48 h, the MED (Candida metapsilosis [35]) was 14 mg/L and the Time (Candida parapsilosis [36]) was >48 h. For the same molecule, the Time (Candida metapsilosis [37]) was 1.99 h, the Time (Candida parapsilosis [38]) was >48 h and the Time (Candida metapsilosis [39]) was 22.3 h.

With `CCCCCOc1ccc(-c2cc(-c3ccc(C(=O)N[C@H]4C[C@@H](O)[C@@H](O)NC(=O)[C@@H]5[C@@H](O)[C@@H](C)CN5C(=O)[C@H]([C@H](O)CC(N)=O)NC(=O)[C@H]([C@H](O)[C@@H](O)c5ccc(O)c(OS(=O)(=O)O)c5)NC(=O)[C@@H]5C[C@@H](O)CN5C(=O)[C@H]([C@@H](C)O)NC4=O)cc3)no2)cc1` [MICAFUNGIN] (X1-[Orn(4R-OH,5R-OH)]T[Hyp][hTyr(3S-OH,4S-OH,3'-OSO3H)][Gln(3R-OH)][Pro(3S-OH,4S-Me)]; lactam 1-C) the MIC (Candida orthopsilosis [1]) was 0.25 µg/mL (≈ 0.197 µM), the Time (Candida parapsilosis [2]) was >48 h and the Time (Candida orthopsilosis [3]) was 11.06 h. For the same molecule, the Time (Candida orthopsilosis [4]) was >48 h, the Time (Candida metapsilosis [5]) was 9.61 h and the Time (Candida orthopsilosis [6]) was 9.17 h. It also gave a Time (Candida metapsilosis [7]) of 4.8 h, an MIC (Candida parapsilosis [8]) of 1 µg/mL (≈ 0.787 µM) and an MIC (Candida orthopsilosis [9]) of 0.25 µg/mL (≈ 0.197 µM). The Time (Candida parapsilosis [10]) was >48 h, the Time (Candida orthopsilosis [11]) was 5.11 h and the MIC (Candida orthopsilosis [13]) was 0.5 µg/mL (≈ 0.394 µM). The Time (Candida parapsilosis [14]) was >48 h, the Activity (Candida metapsilosis [40]) was “Active” and the Time (Candida orthopsilosis [15]) was >48 h. For the same molecule, the Time (Candida metapsilosis [16]) was >48 h, the MIC (Candida parapsilosis [17]) was 1 µg/mL (≈ 0.787 µM) and the Activity (Candida parapsilosis [18]) was “inactive”. The Time (Candida metapsilosis [19]) was 9.53 h, the log10cfu (Candida parapsilosis [41]) was 1.22 /ml and the Time (Candida parapsilosis [20]) was “inactive”. The Time (Candida parapsilosis [22]) was >48 h, the Activity (Candida orthopsilosis [23]) was “Active” and the Time (Candida metapsilosis [24]) was 17.68 h. The Time (Candida orthopsilosis [25]) was 1.54 h, the Time (Candida orthopsilosis [26]) was 30.4 h and the MIC (Candida parapsilosis [27]) was 0.25 µg/mL (≈ 0.197 µM). The Time (Candida orthopsilosis [28]) was 10.22 h, the Time (Candida parapsilosis [29]) was 20.45 h and the Time (Candida parapsilosis [30]) was “inactive”. It also gave an MIC (Candida parapsilosis [31]) of 0.5 µg/mL (≈ 0.394 µM), a Time (Candida orthopsilosis [32]) of 1.38 h and a Time (Candida parapsilosis [33]) of 17.6 h. The Time (Candida orthopsilosis [34]) was 15.34 h, the Time (Candida parapsilosis [36]) was >48 h and the Time (Candida metapsilosis [37]) was 1.43 h. The Time (Candida parapsilosis [38]) was >48 h and the Time (Candida metapsilosis [39]) was 3.06 h.

— ChEMBL document CHEMBL1255421, “In vitro fungicidal activities of echinocandins against Candida metapsilosis, C. orthopsilosis, and C. parapsilosis evaluated by time-kill studies” (2010)
